Measured values from patent US20260317324A1, “BIFUNCTIONAL COMPOUNDS FOR DEGRADING BRAF VIA UBIQUITIN PROTEOSOME PATHWAY” (Nurix Therapeutics, Inc., priority 2023, published 2026).

Target: T1, BRAF V600E (Homo sapiens, UniProt P15056, V600E)
T1 construct: endogenous C-terminal HiBiT fusion tag on BRAF V600E allele; endogenous in cells; host or cells: A375 clone 1F10 (CRISPR-Cas9 knock-in of the HiBiT tag; parental A375 from ATCC)
Test: BRAF HiBiT degradation assay, C-terminal HiBiT-tagged BRAF V600E A375 cells (clone 1F10), Nano-Glo HiBiT Lytic assay
Format: cell-based
Settings: A375 (BRAF V600E); for DC50: DC50 at 50%: fitted conc. at Y=50; for Dmax: A-375, percentage protein degraded at maximal compound effect relative to DMSO
Source text: An A375 cell line expressing a homozygous V600E mutation was purchased from ATCC (Manassas, VA, USA). An A375 clone 1F10 cell line with an endogenous C-terminal HiBiT fusion tag on BRAF V600E allele was generated internally using CRISPR-Cas9 technology and cultured in DMEM, high glucose supplemented with 10% FBS and 1× GlutaMAX. A HCT-116 BRAF−/− cell line overexpressing the C-terminal HiBiT-tagged G466V, G469A, and D594G mutants were generated by lentiviral transduction, externally at Biosettia Inc (San Diego, CA, USA). The stably transfected cells were cultured in RPMI media supplemented with 10% FBS, 1× GlutaMAX, and 0.25 μg/ml puromycin. DMEM medium, RPMI 1640 medium, GlutaMAX, fetal bovine serum (FBS), and puromycin were purchased from Gibco (Grand Island, NY, USA). HCT-116 BRAF−/− cells were purchased from Horizon Discovery (Waterbeach, UK).
The C-terminal HiBiT tagged BRAF A375 cells (monoclonal cell line, cell clone 1F10) were seeded at a density of 10,000 cells/well in 30 μL media (DMEM, high glucose supplemented with 10% FBS and 1× GlutaMAX) in white opaque 384-well plates (Corning #3570) from column 1 to column 23. The wildtype A375 cells were seeded in column 24 at the same cell density in 30 μL media. Cells were incubated at 37° C. with 5% CO2 for 24 h.
Intermediate compound dilution series (5-point, ranging from 5 mM to 0.5 μM, 10-fold dilutions in DMSO) were prepared in a source plate (Beckman Coulter cat. no. 001-16128). Final compound dilution series (11-point, ranging from 1 μM to 0.01 nM, half-log dilutions in DMSO) were stamped into the assay plate (Corning #3570, column 1-11 and 12-22) using the Echo Acoustic Liquid Handler (Beckman Coulter). Each compound was plated in duplicate, and the total volume of compound DMSO solution was 60 nL/well (0.2% final DMSO concentration). DMSO was included in wells A23-L23 and A24-L24. The DMSO-treated HiBiT-tagged samples served as Negative Control (NC) and the DMSO-treated wildtype samples served as Background Control (BC) for the HiBiT assay.
HiBiT signal was measured by a Nano-Glo HiBiT Lytic assay (Promega cat. no. N3050). HiBiT lytic detection reagent (Nano-Glo HiBiT Lytic Buffer with 1:50 Nano-Glo HiBiT Lytic Substrate and 1:100 LgBiT Protein, 40 μL) was added using Bravo. The mixture was incubated at room temperature, in the dark, and with gentle shaking for 10 min. Luminesce units (LU) were read on an EnVision plate reader 2105 (Perkin Elmer).
Percent protein remaining and viability remaining per sample were calculated as follows: […]
% Protein remaining values were plotted as a function of compound concentration. XC50 (DC50) values were determined by fitting curves using the following equation:
For the HiBiT degradation assay, the key parameters reported include: • The dose of compound that produces 50% degradation (DC50 at 50%): • DC50 at 50%: the Fitted X value (Conc.) at Y=50 (response) • Observed Dmax (Obs. Dmax) is the percentage protein degraded at maximal compound effect relative to DMSO-treated control: […]

T1 sequence (P15056 whole entry V600E, the tested form may be a part): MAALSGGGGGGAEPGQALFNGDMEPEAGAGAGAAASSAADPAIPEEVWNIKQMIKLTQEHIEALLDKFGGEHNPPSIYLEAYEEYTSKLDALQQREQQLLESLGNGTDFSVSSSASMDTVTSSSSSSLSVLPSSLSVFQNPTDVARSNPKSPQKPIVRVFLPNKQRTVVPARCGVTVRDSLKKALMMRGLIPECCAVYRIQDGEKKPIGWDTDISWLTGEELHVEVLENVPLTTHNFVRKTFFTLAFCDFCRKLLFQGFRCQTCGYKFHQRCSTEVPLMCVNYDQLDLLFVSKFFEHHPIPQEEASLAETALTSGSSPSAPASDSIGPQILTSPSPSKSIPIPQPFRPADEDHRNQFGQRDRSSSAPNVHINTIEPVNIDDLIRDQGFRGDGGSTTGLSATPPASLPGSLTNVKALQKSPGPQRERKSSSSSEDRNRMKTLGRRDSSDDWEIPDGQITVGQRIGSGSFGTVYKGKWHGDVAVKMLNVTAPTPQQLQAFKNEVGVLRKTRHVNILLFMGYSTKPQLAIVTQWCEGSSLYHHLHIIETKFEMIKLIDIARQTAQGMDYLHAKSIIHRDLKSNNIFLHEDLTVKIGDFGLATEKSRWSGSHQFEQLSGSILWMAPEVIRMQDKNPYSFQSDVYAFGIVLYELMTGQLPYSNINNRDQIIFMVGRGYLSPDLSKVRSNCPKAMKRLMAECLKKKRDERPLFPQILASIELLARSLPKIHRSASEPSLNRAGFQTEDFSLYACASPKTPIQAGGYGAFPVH

CCCS(=O)(=O)Nc1cccc(-c2nc(C(C)(C)C)sc2-c2ccnc(Nc3cnn(CC4CCN(CC5CCN(c6ccc(C(=O)N[C@@H]7CCC(=O)NC7=O)nc6)CC5)CC4)c3)n2)c1F [Compound 66, 5-(4-{[4-({4-[(4-{2-tert-butyl-4-[2-fluoro-3-(propane-1-sulfonamido)phenyl]-1,3-thiazol-5-yl}pyrimidin-2-yl)amino]-1H-pyrazol-1-yl}methyl)piperidin-1-yl]methyl}piperidin-1-yl)-N-[(3R)-2,6-dioxopiperidin-3-yl]pyridine-2-carboxamide]
DC50: < 10 nM
Dmax: > 70%

CCCS(=O)(=O)Nc1cccc(-c2nc(C3(C)CCN(C(=O)C4CCN(CC5CCN(c6ccc(C7CCC(=O)NC7=O)cn6)CC5)CC4)CC3)sc2-c2ccnc(N)n2)c1F (racemic) [Compound 218, Rac-N-{3-[5-(2-aminopyrimidin-4-yl)-2-(1-{1-[(1-{5-[(3R)-2,6-dioxopiperidin-3-yl]pyridin-2-yl}piperidin-4-yl)methyl]piperidine-4-carbonyl}-4-methylpiperidin-4-yl)-1,3-thiazol-4-yl]-2-fluorophenyl}propane-1-sulfonamide]
DC50: 50 to 500 nM
Dmax: > 70%

CCCS(=O)(=O)Nc1cccc(-c2nc(C(C)(C)C)sc2-c2ccnc(Nc3ccc4c(c3)CCN(C(=O)C3CCN(c5ccc(C(=O)NC6CCC(=O)NC6=O)nc5)CC3)C4)n2)c1F (racemic) [Compound 122, Rac-5-(4-{6-[(4-{2-tert-butyl-4-[2-fluoro-3-(propane-1-sulfonamido)phenyl]-1,3-thiazol-5-yl}pyrimidin-2-yl)amino]-1,2,3,4-tetrahydroisoquinoline-2-carbonyl}piperidin-1-yl)-N-[(3R)-2,6-dioxopiperidin-3-yl]pyridine-2-carboxamide]
Dmax: 30 to 70%

CCCS(=O)(=O)Nc1cccc(-c2nc(-c3ccc(C4CCN(C(=O)CC5CCN(c6ccc(NC7CCC(=O)NC7=O)cc6)CC5)CC4)cc3)sc2-c2ccnc(N)n2)c1F (racemic) [Compound 185, Rac-N-{3-[5-(2-aminopyrimidin-4-yl)-2-[4-(1-{2-[1-(4-{[(3R)-2,6-dioxopiperidin-3-yl]amino}phenyl)piperidin-4-yl]acetyl}piperidin-4-yl)phenyl]-1,3-thiazol-4-yl]-2-fluorophenyl}propane-1-sulfonamide]
DC50: 10 to 50 nM
Dmax: 30 to 70%

CCCS(=O)(=O)Nc1cccc(-c2cn(-c3ccc(OC4CCN(C(=O)C5CCN(c6ccc(C7CCC(=O)NC7=O)cn6)CC5)CC4)cc3)nc2-c2ccncc2)c1F (racemic) [Compound 5, Rac-N-{3-[1-(4-{[1-(1-{5-[(3R)-2,6-dioxopiperidin-3-yl]pyridin-2-yl}piperidine-4-carbonyl)piperidin-4-yl]oxy}phenyl)-3-(pyridin-4-yl)-1H-pyrazol-4-yl]-2-fluorophenyl}propane-1-sulfonamide]
DC50: 50 to 500 nM
Dmax: 30 to 70%

CCCS(=O)(=O)Nc1cccc(-c2nc(C3(C)CCN(C(=O)CN4CCN(c5ccc6c(c5)C(=O)N(C5CCC(=O)NC5=O)C6=O)CC4)CC3)sc2-c2ccnc(N)n2)c1F (racemic) [Compound 232, Rac-N-{3-[5-(2-aminopyrimidin-4-yl)-2-{1-[2-(4-{2-[(3R)-2,6-dioxopiperidin-3-yl]-1,3-dioxo-2,3-dihydro-1H-isoindol-5-yl}piperazin-1-yl)acetyl]-4-methylpiperidin-4-yl}-1,3-thiazol-4-yl]-2-fluorophenyl}propane-1-sulfonamide]
DC50: 50 to 500 nM
Dmax: 30 to 70%

CCCS(=O)(=O)Nc1cccc(-c2nc(C(C)(C)C)sc2-c2ccnc(Nc3cccc(OC4CCN(C(=O)CN5CCc6cc(C7CCC(=O)NC7=O)ccc6C5)CC4)c3)n2)c1F (racemic) [Compound 101, Rac-N-[3-(2-tert-butyl-5-{2-[(3-{[1-(2-{6-[(3R)-2,6-dioxopiperidin-3-yl]-1,2,3,4-tetrahydroisoquinolin-2-yl}acetyl)piperidin-4-yl]oxy}phenyl)amino]pyrimidin-4-yl}-1,3-thiazol-4-yl)-2-fluorophenyl]propane-1-sulfonamide]
DC50: 10 to 50 nM
Dmax: > 70%
